Reference: PubChem BioAssay AID256 (DTP/NCI, 2004)
Values joined by “and” are separate entries in the source; they are usually repeats but may differ in a detail not shown here. Equal entries are not always repeated. Toxic doses and inconclusive results are not listed.

Test system: CD2F1 mice, L1210 leukemia ip, survival T/C
Experiment: NCI In Vivo Anticancer Drug Screen. Data for tumor model L1210 Leukemia (intraperitoneal) in CD2F1 (CDF1) mice
Settings: higher = longer survival
Summary of the method: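 Activity against a transplanted murine tumor was judged by comparing the compound group with a vehicle group. The outcome in the treated animals was divided by that in the controls.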

[1] = endpoint: mean survival time, dose: 100.0 mg/kg/injection, schedule: Q04DX003 (ip), vehicle: saline with Tween-80
[2] = endpoint: mean survival time, dose: 200.0 mg/kg/injection, schedule: Q04DX003 (ip), vehicle: saline with Tween-80
[3] = endpoint: mean survival time, dose: 400.0 mg/kg/injection, schedule: Q04DX003 (ip), vehicle: saline with Tween-80
[4] = endpoint: mean survival time, dose: 50.0 mg/kg/injection, schedule: Q01DX009 (ip), vehicle: saline with Tween-80
[5] = endpoint: mean survival time, dose: 100.0 mg/kg/injection, schedule: Q01DX009 (ip), vehicle: saline with Tween-80
[6] = endpoint: mean survival time, dose: 400.0 mg/kg/injection, schedule: Q01DX009 (ip), vehicle: saline with Tween-80
[7] = endpoint: mean survival time, dose: 100.0 mg/kg/injection, schedule: Q04DX003 (ip), vehicle: saline
[8] = endpoint: mean survival time, dose: 100.0 mg/kg/injection, schedule: Q04DX002 (ip), vehicle: saline with Tween-80
[9] = endpoint: mean survival time, dose: 200.0 mg/kg/injection, schedule: Q04DX002 (ip), vehicle: saline with Tween-80
[10] = endpoint: mean survival time, dose: 400.0 mg/kg/injection, schedule: Q04DX002 (ip), vehicle: saline with Tween-80
[11] = endpoint: mean survival time, dose: 200.0 mg/kg/injection, schedule: Q01DX009 (ip), vehicle: saline with Tween-80

In the case of `O=C(O)c1[nH]c(=O)[nH]c(=O)c1F.[Ga]`, the T/C (endpoint: mean survival time, dose: 54.0 mg/kg/injection, schedule: Q01DX001 (ip), vehicle: saline with Tween-80) was 123 % of control and the T/C (endpoint: mean survival time, dose: 177.0 mg/kg/injection, schedule: Q01DX001 (ip), vehicle: saline with Tween-80) was 159 % of control.
With `CSCCC(NC(C)=O)C(=O)O.CSCCC(NC(C)=O)C(=O)O.[NH-]C1CCCCC1[NH-].[Pt+2]` (stereo unspecified) the T/C (endpoint: median survival time, dose: 3.12 mg/kg/injection, schedule: Q04DX003 (ip), vehicle: saline) was 100 % of control, the T/C (endpoint: median survival time, dose: 6.25 mg/kg/injection, schedule: Q04DX003 (ip), vehicle: saline) was 100 % of control and the T/C (endpoint: median survival time, dose: 12.5 mg/kg/injection, schedule: Q04DX003 (ip), vehicle: saline) was 97 % of control. The T/C (endpoint: median survival time, dose: 25.0 mg/kg/injection, schedule: Q04DX003 (ip), vehicle: saline) was 107 % of control, the T/C (endpoint: median survival time, dose: 50.0 mg/kg/injection, schedule: Q04DX003 (ip), vehicle: saline) was 93 % of control and the T/C (endpoint: median survival time, dose: 100.0 mg/kg/injection, schedule: Q04DX003 (ip), vehicle: saline) was 98 % of control. The T/C (endpoint: median survival time, dose: 200.0 mg/kg/injection, schedule: Q04DX003 (ip), vehicle: saline) was 97 % of control.
For `COC(=O)/N=C(/N)SC`, the T/C [1] was 100 % of control, the T/C [2] was 106 % of control and the T/C [3] was 97 % of control.
With `C/C(=N\N=C(/C)c1cccs1)c1cccs1` the T/C (endpoint: median survival time, dose: 25.0 mg/kg/injection, schedule: Q04DX002 (ip), vehicle: saline with Tween-80) was 90 % of control, the T/C (endpoint: median survival time, dose: 50.0 mg/kg/injection, schedule: Q04DX002 (ip), vehicle: saline with Tween-80) was 90 % of control and the T/C (endpoint: median survival time, dose: 100.0 mg/kg/injection, schedule: Q04DX002 (ip), vehicle: saline with Tween-80) was 100 % of control. The T/C (endpoint: median survival time, dose: 200.0 mg/kg/injection, schedule: Q04DX002 (ip), vehicle: saline with Tween-80) was 90 % of control.
For `COC(=O)Nc1ccc(Cc2ccc(NC(=O)OC)cc2)cc1`, the T/C [4] was 121 % of control and 104 % of control, the T/C [5] was 120 % of control and 110 % of control and the T/C [6] was 87 % of control.
In the case of `COC1OC(CCl)C(Cl)C2OS(=O)(=O)OC12` (stereo unspecified), the T/C (endpoint: mean survival time, dose: 100.0 mg/kg/injection, schedule: Q01DX001 (ip), vehicle: saline) was 97 % of control, the T/C (endpoint: mean survival time, dose: 200.0 mg/kg/injection, schedule: Q01DX001 (ip), vehicle: saline) was 100 % of control and the T/C (endpoint: mean survival time, dose: 400.0 mg/kg/injection, schedule: Q01DX001 (ip), vehicle: saline) was 96 % of control.
In the case of `CC(C)C([N+](C)(C)C)P(=O)([O-])O` (stereo unspecified), the T/C [7] was 101 % of control, the T/C (endpoint: mean survival time, dose: 200.0 mg/kg/injection, schedule: Q04DX003 (ip), vehicle: saline) was 96 % of control and the T/C (endpoint: mean survival time, dose: 400.0 mg/kg/injection, schedule: Q04DX003 (ip), vehicle: saline) was 101 % of control.
`Nc1nc2c(ncn2CCCCc2ccccc2)c(=O)[nH]1` was tested, and the T/C [8] was 94 % of control, the T/C [9] was 94 % of control and the T/C [10] was 94 % of control.
`CC1(C)OCC(CO)([N+](=O)[O-])CO1` was tested, and the T/C [1] was 96 % of control.
With `CCCCNC(=O)Nc1ccccc1Cl` the T/C [5] was 91 % of control, the T/C [1] was 101 % of control and the T/C [11] was 94 % of control. For the same compound, the T/C [2] was 100 % of control, the T/C [6] was 100 % of control and the T/C [3] was 92 % of control.
In the case of `C/C=C\C1OC1(C)c1cc(=O)c2c(C)cc3c(c2o1)C(=O)c1c(O)c(C2CC(C)(N(C)C)C(OC(C)=O)C(C)O2)cc(C2CC(N(C)C)C(O)C(C)O2)c1C3=O` (stereo unspecified), the T/C (endpoint: mean survival time, dose: 0.35 mg/kg/injection, schedule: Q04DX003 (ip), vehicle: saline with Tween-80) was 102 % of control, the T/C (endpoint: median survival time, dose: 0.22 mg/kg/injection, schedule: Q01DX005 (ip), vehicle: saline + alcohol) was 124 % of control and the T/C (endpoint: median survival time, dose: 0.25 mg/kg/injection, schedule: Q01DX005 (ip), vehicle: saline + alcohol) was 120 % of control. For the same compound, the T/C (endpoint: median survival time, dose: 0.36 mg/kg/injection, schedule: Q01DX005 (ip), vehicle: saline + alcohol) was 120 % of control, the T/C (endpoint: median survival time, dose: 1.0 mg/kg/injection, schedule: Q01DX005 (ip), vehicle: saline + alcohol) was 120 % of control and the T/C (endpoint: median survival time, dose: 2.78 mg/kg/injection, schedule: Q01DX005 (ip), vehicle: saline + alcohol) was 172 % of control.
`CCCCNCCCC` was tested, and the T/C [7] was 97 % of control.
For `CCN(CC)c1ccc2c(-c3ccccc3C(=O)O)c3ccc(=[N+](CC)CC)cc-3oc2c1`, the T/C (endpoint: mean survival time, dose: 5.0 mg/kg/injection, schedule: Q04DX003 (ip), vehicle: saline with Tween-80) was 105 % of control, the T/C (endpoint: mean survival time, dose: 10.0 mg/kg/injection, schedule: Q04DX003 (ip), vehicle: saline with Tween-80) was 105 % of control and the T/C (endpoint: mean survival time, dose: 20.0 mg/kg/injection, schedule: Q04DX003 (ip), vehicle: saline with Tween-80) was 102 % of control. The T/C [5] was 101 % of control, the T/C [11] was 103 % of control and the T/C [6] was 100 % of control.
With `CC(C)=CCCc1ccc2c(c1)C(=O)c1ccccc1C2=O` the T/C [8] was 88 % of control, the T/C [9] was 92 % of control and the T/C [10] was 96 % of control.
For `C#CCOCCC(=O)O`, the T/C (endpoint: mean survival time, dose: 50.0 mg/kg/injection, schedule: Q01DX009 (ip), vehicle: acetone) was 102 % of control, the T/C (endpoint: mean survival time, dose: 100.0 mg/kg/injection, schedule: Q01DX009 (ip), vehicle: acetone) was 100 % of control and the T/C (endpoint: mean survival time, dose: 200.0 mg/kg/injection, schedule: Q01DX009 (ip), vehicle: acetone) was 97 % of control.
`CC(C)C1(NC(=O)C2C=C3c4cccc5[nH]cc(c45)CC3N(C)C2)OC2(O)C3CCCN3C(=O)C(Cc3ccccc3)N2C1=O` (stereo unspecified) was tested, and the T/C (endpoint: mean survival time, dose: 50.0 mg/kg/injection, schedule: Q04DX003 (ip), vehicle: saline with Tween-80) was 96 % of control, the T/C [1] was 105 % of control and the T/C [2] was 100 % of control.
With `Nc1nc2c(ncn2-c2ccc(-c3ccccc3)cc2)c(=O)[nH]1` the T/C (endpoint: mean survival time, dose: 100.0 mg/kg/injection, schedule: Q01DX001 (ip), vehicle: saline with Tween-80) was 93 % of control and 108 % of control, the T/C [8] was 97 % of control and the T/C (endpoint: mean survival time, dose: 200.0 mg/kg/injection, schedule: Q01DX001 (ip), vehicle: saline with Tween-80) was 87 % of control and 89 % of control. For the same compound, the T/C [9] was 93 % of control, the T/C (endpoint: mean survival time, dose: 400.0 mg/kg/injection, schedule: Q01DX001 (ip), vehicle: saline with Tween-80) was 93 % of control and the T/C [10] was 89 % of control.
For `CCC(CC)COC(=O)c1ccccc1C(=O)OCC(CC)CC`, the T/C (endpoint: mean survival time, dose: 12.5 mg/kg/injection, schedule: Q01DX009 (ip), vehicle: saline with Tween-80) was 108 % of control, the T/C (endpoint: mean survival time, dose: 25.0 mg/kg/injection, schedule: Q01DX009 (ip), vehicle: saline with Tween-80) was 101 % of control and the T/C [4] was 104 % of control. For the same compound, the T/C [5] was 102 % of control, the T/C [11] was 98 % of control and the T/C [6] was 100 % of control.
In the case of `CCN1/C(=C/C=C/c2oc3ccc4ccccc4c3[n+]2CC)Oc2ccc3ccccc3c21`, the T/C (endpoint: mean survival time, dose: 9.5 mg/kg/injection, schedule: Q01DX001 (ip), vehicle: other) was 104 % of control, the T/C (endpoint: mean survival time, dose: 19.0 mg/kg/injection, schedule: Q01DX001 (ip), vehicle: other) was 112 % of control and the T/C (endpoint: mean survival time, dose: 38.0 mg/kg/injection, schedule: Q01DX001 (ip), vehicle: other) was 118 % of control.
In the case of `Cc1ccc(NS(=O)(=O)c2ccccc2)c([N+](=O)[O-])c1`, the T/C [5] was 97 % of control, the T/C [1] was 105 % of control and the T/C [11] was 95 % of control. The T/C [2] was 97 % of control, the T/C [6] was 100 % of control and the T/C [3] was 100 % of control.
For `O=C1N(Cc2ccccc2)CC2C(c3ccccc3)NNC12O` (stereo unspecified), the T/C [1] was 89 % of control and the T/C [3] was 101 % of control.
`Cc1c2ccncc2cc2c1[nH]c1ccccc12` was tested, and the T/C (endpoint: mean survival time, dose: 0.8 mg/kg/injection, schedule: Q03HX008 (iv), vehicle: saline) was 97 % of control, the T/C (endpoint: mean survival time, dose: 1.6 mg/kg/injection, schedule: Q03HX008 (iv), vehicle: saline) was 97 % of control and the T/C (endpoint: mean survival time, dose: 1.6 mg/kg/injection, schedule: Q06HX004 (iv), vehicle: saline) was 97 % of control. The T/C (endpoint: mean survival time, dose: 3.2 mg/kg/injection, schedule: Q06HX004 (iv), vehicle: saline) was 93 % of control, the T/C (endpoint: mean survival time, dose: 3.21 mg/kg/injection, schedule: Q#A X002 (iv), vehicle: saline) was 95 % of control and the T/C (endpoint: mean survival time, dose: 6.3 mg/kg/injection, schedule: Q06HX004 (iv), vehicle: saline) was 97 % of control. The T/C (endpoint: mean survival time, dose: 6.31 mg/kg/injection, schedule: Q#A X002 (iv), vehicle: saline) was 101 % of control, the T/C (endpoint: mean survival time, dose: 12.5 mg/kg/injection, schedule: Q01DX001 (iv), vehicle: saline) was 95 % of control and the T/C (endpoint: mean survival time, dose: 12.51 mg/kg/injection, schedule: Q#A X002 (iv), vehicle: saline) was 100 % of control. The T/C (endpoint: mean survival time, dose: 25.0 mg/kg/injection, schedule: Q01DX001 (iv), vehicle: saline) was 98 % of control and the T/C (endpoint: mean survival time, dose: 25.1 mg/kg/injection, schedule: Q#A X002 (iv), vehicle: saline) was 101 % of control.
